Laboratory results: ChEMBL document CHEMBL1201862, “PubChem BioAssay data set” (2004)
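These data come from cells grown in 96-well plates and exposed to compound for 48 hours at five concentrations. GI50: concentration for 50% inhibition of growth.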 The source made the active and inactive calls. Rule as the data show it: active = GI50 up to about 1.1 µM and inactive = higher.

Tests used:
Assay in all cases: NCI tumour cell line growth inhibition, 48 h
786-0 = test system: 786-0
A498 = test system: A498
A549 = test system: A549
ACHN = test system: ACHN
CAKI-1 = test system: CAKI-1
CCRF-CEM = test system: CCRF-CEM
DLD-1 = test system: DLD-1
DMS-273 = test system: DMS-273
EKVX = test system: EKVX
HCC 2998 = test system: HCC 2998
HCT-116 = test system: HCT-116
HCT-15 = test system: HCT-15
HL-60 = test system: HL-60
HOP-62 = test system: HOP-62
HT-29 = test system: HT-29
IGROV-1 = test system: IGROV-1
K562 = test system: K562
KM-20L2 = test system: KM-20L2
KM12 = test system: KM12
LXFL 529 = test system: LXFL 529
M14 = test system: M14
M19-MEL = test system: M19-MEL
MOLT-4 = test system: MOLT-4
Malme-3M = test system: Malme-3M
NCI-H226 = test system: NCI-H226
NCI-H23 = test system: NCI-H23
NCI-H460 = test system: NCI-H460
OVCAR-3 = test system: OVCAR-3
OVCAR-4 = test system: OVCAR-4
OVCAR-5 = test system: OVCAR-5
OVCAR-8 = test system: OVCAR-8
RPMI-8226 = test system: RPMI-8226
RXF 393 = test system: RXF 393
RXF 631 = test system: RXF 631
SF-295 = test system: SF-295
SF-539 = test system: SF-539
SK-MEL-28 = test system: SK-MEL-28
SK-MEL-2 = test system: SK-MEL-2
SK-MEL-5 = test system: SK-MEL-5
SK-OV-3 = test system: SK-OV-3
SNB-75 = test system: SNB-75
SW-620 = test system: SW-620
TK-10 = test system: TK-10
U-251 = test system: U-251
UACC-257 = test system: UACC-257
UACC-62 = test system: UACC-62
UO-31 = test system: UO-31
XF498 = test system: XF498
COLO 205 = test system: COLO 205
DMS-114 = test system: DMS-114
HOP-18 = test system: HOP-18
HOP-92 = test system: HOP-92
LOX IMVI = test system: LOX IMVI
SF-268 = test system: SF-268
SN12C = test system: SN12C
SNB-19 = test system: SNB-19
SNB-78 = test system: SNB-78

Structure (SMILES): CC(=O)O[C@H]1CC[C@@]2(C)C(=CC[C@@H]3C2CC[C@]2(C)Nc4oncc4CC32)C1 (stereo partly specified)
- GI50 (786-0): > 100 µM (inactive)
- GI50 (A498): 40.6 µM (inactive)
- GI50 (A549): 28.4 µM (inactive)
- GI50 (ACHN): 25.6 µM (inactive)
- GI50 (CAKI-1): 31.3 µM (inactive)
- GI50 (CCRF-CEM): 4.85 µM (inactive)
- GI50 (DLD-1): 46 µM (inactive)
- GI50 (DMS-273): 26.9 µM (inactive)
- GI50 (EKVX): > 100 µM (inactive)
- GI50 (HCC 2998): > 100 µM (inactive)
- GI50 (HCT-116): 15.5 µM (inactive)
- GI50 (HCT-15): 33 µM
- GI50 (HL-60): 11.7 µM (inactive)
- GI50 (HOP-62): 49.2 µM (inactive)
- GI50 (HT-29): 30.1 µM (inactive)
- GI50 (IGROV-1): 28.1 µM (inactive)
- GI50 (K562): 6.68 µM (inactive)
- GI50 (KM-20L2): 90.6 µM (inactive)
- GI50 (KM12): 22.6 µM (inactive)
- GI50 (LXFL 529): 13 µM (inactive)
- GI50 (M14): 31.8 µM (inactive)
- GI50 (M19-MEL): 28.5 µM (inactive)
- GI50 (MOLT-4): 10.7 µM (inactive)
- GI50 (Malme-3M): 25.3 µM (inactive)
- GI50 (NCI-H226): 15 µM (inactive)
- GI50 (NCI-H23): 44 µM (inactive)
- GI50 (NCI-H460): 20.3 µM (inactive)
- GI50 (OVCAR-3): 16.3 µM (inactive)
- GI50 (OVCAR-4): 16.8 µM (inactive)
- GI50 (OVCAR-5): > 100 µM (inactive)
- GI50 (OVCAR-8): 34.6 µM (inactive)
- GI50 (RPMI-8226): 16.9 µM (inactive)
- GI50 (RXF 393): 38.8 µM (inactive)
- GI50 (RXF 631): 33.5 µM (inactive)
- GI50 (SF-295): 32.6 µM (inactive)
- GI50 (SF-539): 44.9 µM (inactive)
- GI50 (SK-MEL-28): 37.2 µM (inactive)
- GI50 (SK-MEL-2): 44.5 µM (inactive)
- GI50 (SK-MEL-5): 17.8 µM (inactive)
- GI50 (SK-OV-3): 96.6 µM (inactive)
- GI50 (SNB-75): 24.2 µM (inactive)
- GI50 (SW-620): 43.3 µM (inactive)
- GI50 (TK-10): 49.2 µM (inactive)
- GI50 (U-251): 37.4 µM (inactive)
- GI50 (UACC-257): 31.7 µM (inactive)
- GI50 (UACC-62): 27.5 µM (inactive)
- GI50 (UO-31): 18.3 µM (inactive)
- GI50 (XF498): 31.5 µM (inactive)

Structure (SMILES): Cc1ccc(NC(=O)CCC(=O)C2CC(=O)CCC2=O)cc1C (stereo unspecified)
- GI50 (786-0): > 100 µM (inactive)
- GI50 (A549): > 100 µM (inactive)
- GI50 (ACHN): > 100 µM (inactive)
- GI50 (CAKI-1): > 100 µM (inactive)
- GI50 (CCRF-CEM): > 100 µM (inactive)
- GI50 (COLO 205): > 100 µM (inactive)
- GI50 (DLD-1): > 100 µM (inactive)
- GI50 (DMS-114): > 100 µM (inactive)
- GI50 (DMS-273): > 100 µM (inactive)
- GI50 (EKVX): > 100 µM (inactive)
- GI50 (HCC 2998): > 100 µM (inactive)
- GI50 (HCT-116): > 100 µM (inactive)
- GI50 (HCT-15): > 100 µM
- GI50 (HL-60): > 100 µM (inactive)
- GI50 (HOP-18): > 100 µM (inactive)
- GI50 (HOP-62): > 100 µM (inactive)
- GI50 (HOP-92): 76.4 µM (inactive)
- GI50 (HT-29): > 100 µM (inactive)
- GI50 (IGROV-1): > 100 µM (inactive)
- GI50 (K562): > 100 µM (inactive)
- GI50 (KM-20L2): > 100 µM (inactive)
- GI50 (KM12): > 100 µM (inactive)
- GI50 (LOX IMVI): > 100 µM (inactive)
- GI50 (LXFL 529): > 100 µM (inactive)
- GI50 (M14): > 100 µM (inactive)
- GI50 (M19-MEL): > 100 µM (inactive)
- GI50 (MOLT-4): > 100 µM (inactive)
- GI50 (Malme-3M): > 100 µM (inactive)
- GI50 (NCI-H226): > 100 µM (inactive)
- GI50 (NCI-H23): > 100 µM (inactive)
- GI50 (NCI-H460): > 100 µM (inactive)
- GI50 (OVCAR-3): > 100 µM (inactive)
- GI50 (OVCAR-4): > 100 µM (inactive)
- GI50 (OVCAR-5): > 100 µM (inactive)
- GI50 (OVCAR-8): > 100 µM (inactive)
- GI50 (RXF 393): > 100 µM (inactive)
- GI50 (RXF 631): > 100 µM (inactive)
- GI50 (SF-268): > 100 µM (inactive)
- GI50 (SF-295): > 100 µM (inactive)
- GI50 (SF-539): > 100 µM (inactive)
- GI50 (SK-MEL-28): > 100 µM (inactive)
- GI50 (SK-MEL-2): > 100 µM (inactive)
- GI50 (SK-MEL-5): > 100 µM (inactive)
- GI50 (SK-OV-3): > 100 µM (inactive)
- GI50 (SN12C): > 100 µM (inactive)
- GI50 (SNB-19): > 100 µM (inactive)
- GI50 (SNB-78): > 100 µM (inactive)
- GI50 (SW-620): > 100 µM (inactive)
- GI50 (TK-10): > 100 µM (inactive)
- GI50 (U-251): > 100 µM (inactive)
- GI50 (UACC-257): > 100 µM (inactive)
- GI50 (UACC-62): > 100 µM (inactive)
- GI50 (UO-31): > 100 µM (inactive)
